# What was measured:
# PC-3 = assay: NCI multiple cell line test (SRB); assay type: cell-based, human; conditions: PC-3 (Prostate Cancer), 48 h
# HL-60 (TB) = assay: NCI multiple cell line test (SRB); assay type: cell-based, human; conditions: HL-60 (TB) (Leukemia), 48 h
# Description: (§1) The NCI tested MT477 60 cell line test, and reported the GI50, TGI, and LC50 values of MT477 for each cell line, reported herein at Table 3.
# (§2) Methodology: The NCI conducted a test of the MT477 drug against about 60 human cell lines, with a minimum of five concentrations of MT477 at 10-fold dilutions, with no more than 5(10)^−5 molar of drug being used. A 48 hour continuous drug exposure was used, and a sulforhodamine B (SRB) protein assay was used to estimate cell viability and growth. The human tumor cell lines of the cancer screening panel were grown in RPMI 1640 medium containing 5% fetal bovine serum and 2 mM L-glutamine. Cells were inoculated into 96 well microtiter plates in 100 μL at plating densities ranging from 5,000 to 40,000 cells/well depending on the doubling time of individual cell lines. After cell inoculation, the microtiter plates are incubated at 37° C., 5% CO2, 95% air, and 100% relative humidity for 24 h prior to addition of experimental drugs.
# (§3) After 24 h, two plates of each cell line were fixed in situ with TCA, to represent a measurement of the cell population for each cell line at the time of drug addition (Tz). MT477 was solubilized in dimethyl sulfoxide at 400-fold the desired final maximum test concentration and stored frozen prior to use. At the time of drug addition, an aliquot of frozen concentrate was thawed and diluted to twice the desired final maximum test concentration with complete medium containing 50 μg/ml gentamicin. Additional four, 10-fold or ½ log serial dilutions were made to provide a total of five drug concentrations plus control. Aliquots of 100 μl of these different drug dilutions were added to the appropriate microtiter wells already containing 100 μl of medium, resulting in the required final drug concentrations.
# (§4) Following drug addition, the plates were incubated for an additional 48 h at 37° C., 5% CO2, 95% air, and 100% relative humidity. For adherent cells, the assay was terminated by the addition of cold TCA. Cells were fixed in situ by the gentle addition of 50 μl of cold 50% (w/v) TCA (final concentration, 10% TCA) and incubated for 60 minutes at 4° C. The supernatant was discarded, and the plates were washed five times with tap water and air dried. Sulforhodamine B (SRB) solution (100 μl) at 0.4% (w/v) in 1% acetic acid was added to each well, and plates were incubated for 10 minutes at room temperature. After staining, unbound dye was removed by washing five times with 1% acetic acid and the plates were air-dried. Bound stain was subsequently solubilized with 10 mM trizma base, and the absorbance was read on an automated plate reader at a wavelength of 515 nm. For suspension cells, the methodology was the same except that the assay was terminated by fixing settled cells at the bottom of the wells by gently adding 50 μl of 80% TCA (final concentration, 16% TCA). Using the seven absorbance measurements (time zero, (Tz), control growth, (C), and test growth in the presence of drug at the five concentration levels (Ti)), the percentage growth was calculated at each of the drug concentrations levels. Percentage growth inhibition was calculated as: [(Ti−Tz)/(C−Tz)]×100 for concentrations for which Ti>/=Tz [(Ti−Tz)/Tz]×100 for concentrations for which Ti<Tz.
# (§5) Three dose response parameters were calculated for each experimental agent. Growth inhibition of 50% (GI50) was calculated from [(Ti−Tz)/(C−Tz)]×100=50, which is the drug concentration resulting in a 50% reduction in the net protein increase (as measured by SRB staining) in control cells during the drug incubation. The drug concentration resulting in total growth inhibition (TGI) was calculated from Ti=Tz. The LC50 (concentration of drug resulting in a 50% reduction in the measured protein at the end of the drug treatment as compared to that at the beginning) indicating a net loss of cells following treatment was calculated from [(Ti−Tz)/Tz]×100=−50. […]
# M14 = assay: NCI multiple cell line test (SRB); assay type: cell-based, human; conditions: M14 (Melanoma), 48 h
# Description: as §1, §2, §3, §4, §5
# NCI-H322M = assay: NCI multiple cell line test (SRB); assay type: cell-based, human; conditions: NCI-H322M (Non-Small Cell Lung Cancer), 48 h
# Description: as §1, §2, §3, §4, §5
# NCI-H226 = assay: NCI multiple cell line test (SRB); assay type: cell-based, human; conditions: NCI-H226 (Non-Small Cell Lung Cancer), 48 h
# MCF7 = assay: NCI multiple cell line test (SRB); assay type: cell-based, human
# HCT-116 = assay: NCI multiple cell line test (SRB); assay type: cell-based, human; conditions: HCT-116 (Colon Cancer), 48 h
# NCI-H460 = assay: NCI multiple cell line test (SRB); assay type: cell-based, human
# KM12 = assay: NCI multiple cell line test (SRB); assay type: cell-based, human; conditions: KM12 (Colon Cancer), 48 h
# CCRF-CEM = assay: NCI multiple cell line test (SRB); assay type: cell-based, human; conditions: CCRF-CEM (Leukemia), 48 h
# [1] = system: human endothelial vein cells (HUVECs); assay: Growth response, MTT dye conversion assay; assay type: cell-based; conditions: FIG. 6; 48 hours; compared with cisplatin
# RPMI-8226 = assay: NCI multiple cell line test (SRB); assay type: cell-based, human; conditions: RPMI-8226 (Leukemia), 48 h
# [2] = system: normal human lung fibroblasts; assay: Growth response, MTT dye conversion assay; assay type: cell-based; conditions: compared with cisplatin
# [3] = Homo sapiens, read-out: −log10GI50 (converted)
# [4] = NCI-H460 (Non-Small Cell Lung Cancer), 48 h
smiles,measurement,setting,value
COC(=O)C1=C(C(=O)OC)SC2(S1)C(C(=O)OC)=C(C(=O)OC)SC1=C2c2cccc(OC)c2N(C(=O)CN2C(=O)CCC2=O)C1(C)C [MT477],IC50,PC-3; [3],1450 nM
same,−log10LC50,PC-3,4.64 molar
same,−log10TGI,PC-3,5.35 molar
same,−log10LC50,HL-60 (TB),* (effect not reached at maximum dose of 0.05 millimolar)
same,−log10TGI,HL-60 (TB),4.83 molar
same,IC50,HL-60 (TB); [3],2190 nM
same,−log10GI50,M14,602 molar
same,IC50,NCI-H322M; [3],6460 nM
same,−log10TGI,NCI-H322M,4.87 molar
same,IC50,NCI-H226; [3],7080 nM
same,−log10LC50,NCI-H226,* (effect not reached at maximum dose of 0.05 millimolar)
same,−log10TGI,NCI-H226,4.72 molar
same,IC50,"MCF7; Homo sapiens, MCF7 (Breast Cancer), 48 h, read-out: −log10GI50 (converted)",1780 nM
same,GI50,"MCF7; Homo sapiens, NCI-MCF7, MT477 ACTUAL",1580 nM
same,−log10LC50,"MCF7; MCF7 (Breast Cancer), 48 h",* (effect not reached at maximum dose of 0.05 millimolar)
same,−log10TGI,"MCF7; MCF7 (Breast Cancer), 48 h",* (effect not reached at maximum dose of 0.05 millimolar)
same,Activity against breast cancer NCI-MCF7,MCF7; MT477 ACTUAL,Yes
same,−log10LC50,HCT-116,5.48 molar
same,−log10TGI,HCT-116,5.75 molar
same,IC50,HCT-116; [3],955 nM
same,IC50,"NCI-H460; Homo sapiens, NCI-H460 (Non-Small Cell Lung Cancer), 48 h, read-out: −log10GI50 (converted)",1740 nM
same,GI50,"NCI-H460; Homo sapiens, NCI-H460, MT477 ACTUAL",1740 nM
same,Activity against lung cancer NCI-H460,NCI-H460; MT477 ACTUAL,Yes
same,−log10LC50,NCI-H460; [4],* (effect not reached at maximum dose of 0.05 millimolar)
same,−log10TGI,NCI-H460; [4],* (effect not reached at maximum dose of 0.05 millimolar)
same,IC50,KM12; [3],2290 nM
same,−log10LC50,KM12,* (effect not reached at maximum dose of 0.05 millimolar)
same,−log10TGI,KM12,* (effect not reached at maximum dose of 0.05 millimolar)
same,−log10LC50,CCRF-CEM,* (effect not reached at maximum dose of 0.05 millimolar)
same,−log10TGI,CCRF-CEM,* (effect not reached at maximum dose of 0.05 millimolar)
same,IC50,CCRF-CEM; [3],3240 nM
same,cytotoxicity profile (growth response),[1],cytotoxicity profile that is similar to cisplatin
same,IC50,RPMI-8226; [3],7590 nM
same,−log10LC50,RPMI-8226,4.42 molar
same,−log10TGI,RPMI-8226,4.77 molar
same,growth response,"[2]; FIG. 10, normal human lung cells at 24 and 48 hours",more effective than cisplatin
same,cytotoxicity profile (growth response),"[2]; FIGS. 1 and 2, 48 hours",cytotoxicity profile that is similar to cisplatin

# From patent US7652029B2, “Therapeutic compound and treatments” (priority 2004, dated 2010)
